Source: patent publication US20220218714A1, “METHOD OF TREATING CANCER” (Epizyme, Inc., priority 2013, published 2022)
Entries after “also recorded” stand apart in the source; their conditions may differ.

Columns and labels:
HS-SY-II cells = assay: Adherent cell line 14-day long-term proliferation assay (CellTiter-Glo); assay type: cell-based, human
Procedure: (§1) 96-well plating for 7 day assay: For each adherent cell line, plated cells in a volume of 100 μL in 96-well plates, to be treated in triplicate, either in the evening (to treat with compound the following day) or in morning (to treat with compound in the evening), to allow cells to attach to plates before compound treatment.
(§2) 6-well plates to be split for 7-14 day assay: Plated 2mL of cells at the correct density in each well of the 6-well plate. Calculated the correct density from the 96-well plate growth curve by multiplying the 96-well density by 30. The factor 30 came from growth area of the 6-well plate divided by the growth area of the 96-well plate (9.5cm^2/0.32cm^2=29.7, rounded up to 30), which corresponds to 30-fold more surface area in a 6-well vs. a 96-well plate.
(§3) Day 0: Treated with compound or DMSO by removing media and adding back either […] (for 96-well plate) or 2 mL (for 6-well plate) media with the correct dilutions of compound/DMSO. Table 1 includes an example of 96-well plate map. Plates were incubated for 96 hours.
(§4) Read one 96-well plate with CellTiter-Glo®, for a Day 0 reading (media change not necessary for this plate).
(§5) Day 4: Read one 96-well plate with CellTiter-Glo® for a Day 4 reading (media change not necessary for this plate before reading). Replaced media with fresh media containing compound on Day 4 in 96-well plates and 6-well plates.
(§6) Day 7: read final 96-well plate with CellTiter-Glo®.
(§7) Counted individual wells of 6-well plates, and replated cells to initial plating density in 96-well plates, as described above.
(§8) Repeated steps for Days 0-7 for Days 7-14 of the proliferation assay.
(§9) Particularly, approximately 12 hours before compound treatment, HS-SY-II or SW982 cells were plated at the density of 24,000 cells/well and 7,500 cells/well, respectively in 6-well plates. On day 0, cells were treated with either DMSO or compound starting at 10 μmol/L and decreasing in fourfold dilutions. On day 7, the cells in 6-well plates were trypsinized, counted by TC10 automated cell counter (Bio-Rad, Richmond, Calif.) and replated at the density of 800 cells/well and 250 cells/well for HS-SY-II and SW982, respectively in 96-well plates in triplicate. The cells were allowed to adhere to the plate overnight, and treated with either DMSO or compound as on Day 0. On days 0, 7, 11, and 14, cell viability was determined by CellTiter-Glo® Luminescent Cell Viability Assay (Promega) with EnVision 2103 Multilabel Reader (Perkin-Elmer, Wellesley, Mass.). Compound/media was changed with new one on Day 4 and 11. The ratios of the measured values on Days 7, 11, and 14 to that of day 7 were used to plot proliferation from day 7 to day 14, and to calculate the IC50 values on Day 14. […]

SW982 cells = assay: as above; assay type: cell-based, human
Procedure: as §1, §2, §3, §4, §5, §6, §7, §8, §9

[1] = tested on: PDX of synovial sarcoma tumors; assay: Tumor volume in patient-derived xenografts (PDX) of synovial sarcoma, 35 days dosing; assay type: in vivo, athymic nude mice; settings: two synovial sarcoma PDX; oral 125, 250 or 500/400 mg/kg for 35 days
Procedure: FIGS. 11A and 11C show mean in vivo tumor volumes for athymic nude mice bearing one of two different PDX of synovial sarcoma tumors. FIGS. 11B and 11D show percent survival for mice bearing a PDX. Mice were dosed with either vehicle (oral for 35 days), Compound A (oral: 125 mg/kg, 250 mg/kg, or 500/400 mg/kg for 35 days) or Doxorubicin (iv: 3 mg/kg, once a week for 3 weeks). FIGS. 11A and 11B show data from mice bearing PDX from high-grade spindle cell sarcoma. FIGS. 11C and 11D show data from mice bearing PDX.

## CCN(c1cc(-c2ccc(CN3CCOCC3)cc2)cc(C(=O)NCc2c(C)cc(C)[nH]c2=O)c1C)C1CCOCC1 [Compound A]
HS-SY-II cells
  sensitivity (cell proliferation / viability): high sensitivity; also recorded: highly sensitive
SW982 cells
  sensitivity (cell proliferation / viability): did not; also recorded: not sensitive
[1]
  tumor volume: dose-related tumor volume decrease
